# Measured values taken from patent US20230295118A1 (EnhancedBio Inc., priority 2022, published 2023).
# Legend:
# [1] = tested on: mantle cell lymphoma cell (Mino or JeKo-1); test: Antiproliferative effect, MTS cell viability assay; type: cell-based; conditions: 72 h; for IC50: mantle cell lymphoma cell (Mino or JeKo-1), MTS assay, read-out: IC50 (anti-proliferation); for inhibition of cell proliferation of Mino cells: 0-1 μM, result in words
# Procedure, shortened: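 MTS read-out (formazan absorbance at 490 nm) after 72 h exposure of Mino cells to 0–1 μM compound (0.0001, 0.001, 0.01, 0.1, 1 μM). Palbociclib and abemaciclib served as positive controls.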
# CDK4 = target: T1, CDK4 (Homo sapiens, UniProt P11802); test: CDK4 degradation (DC50, Dmax); type: cell-based
# T1 construct: endogenous in cells
# CDK6 = target: T2, CDK6 (Homo sapiens, UniProt Q00534); test: CDK6 degradation (DC50, Dmax); type: cell-based
# T2 construct: endogenous in cells
# CDK4/6 = CDK4/6 degradation in A375 melanoma cells (FIG. 1); type: cell-based; conditions: result in words
# Mino xenograft tumor = test: In vivo tumor inhibition efficacy, Mino xenograft; conditions: NOD/SCID mice, 20 mg/kg via oral gavage for 3 weeks; result in words
# Description: Mino cells were obtained from American Type Culture Collection (ATCC, Manassas, VA). Cells were maintained in RPM 1640 (Life Technologies, Grand Island, NY) supplemented with 10% heat-inactivated fetal bovine serum (56° C. for 30 minutes), penicillin (10 000 units/mL; Sigma, St Louis, Mo), streptomycin (10 mg/mL; Sigma), gentamicin (50 mg/mL; Life Technologies), amphotericin B (25 mg/mL; Sigma), and L-glutamine (200 mM, 29.2 mg/mL; Life Technologies), culture, as previously described (29, 30). Mino cells (10 million) were subcutaneously implanted into the flank of NOD/SCID mice. When the average tumor volume reached approximately 300 cubic millimeters (mm^3), the following treatments were administered in cohorts of 5 mice for each treatment: vehicle alone, 20 mg/kg abemaciclib, 20 mg/kg Compound 90, or 20 mg/kg Compound 94 via oral gavage for 3 weeks. Tumor growth was monitored twice weekly by calipers and tumor volume was calculated using the equation: (½ (length×width^2)).
# T2 sequence (Q00534 whole entry): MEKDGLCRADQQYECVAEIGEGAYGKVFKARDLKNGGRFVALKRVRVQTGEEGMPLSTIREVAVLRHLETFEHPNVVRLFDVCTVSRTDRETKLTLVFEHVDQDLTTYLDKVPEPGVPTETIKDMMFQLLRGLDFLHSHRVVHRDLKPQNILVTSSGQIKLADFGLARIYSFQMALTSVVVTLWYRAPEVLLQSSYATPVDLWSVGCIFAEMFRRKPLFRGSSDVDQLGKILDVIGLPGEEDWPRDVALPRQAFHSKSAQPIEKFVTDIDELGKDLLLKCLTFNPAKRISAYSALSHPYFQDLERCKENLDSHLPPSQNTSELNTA
# T1 sequence (P11802 whole entry): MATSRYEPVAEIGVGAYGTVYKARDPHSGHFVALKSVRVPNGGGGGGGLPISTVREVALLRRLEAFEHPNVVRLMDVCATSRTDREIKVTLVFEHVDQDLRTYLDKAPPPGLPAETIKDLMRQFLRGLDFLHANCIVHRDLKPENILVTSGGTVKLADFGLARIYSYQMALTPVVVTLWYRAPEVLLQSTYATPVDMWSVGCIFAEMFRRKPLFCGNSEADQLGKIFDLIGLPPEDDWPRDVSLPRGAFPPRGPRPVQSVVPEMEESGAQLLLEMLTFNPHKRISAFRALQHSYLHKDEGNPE
IC50 [1] [nM],DC50 (CDK4) [nM],Dmax (CDK4) [%],DC50 (CDK6) [nM],Dmax (CDK6) [%],SMILES,inhibition of cell proliferation of Mino cells [1],CDK4/6 degradation (CDK4/6),Mino xenograft tumor growth (Mino xenograft tumor)
< 50,50 to 200,> 60,50 to 200,> 60,"CC(=O)c1c(C)c2cnc(Nc3ccc(N4CCN(C(=O)CNc5ccc6c(c5)C(=O)N(C5CCC(=O)NC5=O)C6=O)CC4)cn3)nc2n(C2CCCC2)c1=O (stereo not shown) [Compound 104, 5-((2-(4-(6-((6-acetyl-8-cyclopentyl-5-methyl-7-oxo-7,8-dihydropyrido[2,3-d]pyrimidin-2-yl)amino)pyridin-3-yl)piperazin-1-yl)-2-oxoethyl)amino)-2-(2,6-dioxopiperidin-3-yl)isoindoline-1,3-dione]",dose-dependent inhibition of cell proliferation,dose-dependent CDK4/6 degradation,–
< 50,< 50,> 80,< 50,> 80,"CC(=O)c1c(C)c2cnc(Nc3ccc(N4CCN(CCCNc5ccc6c(c5)C(=O)N(C5CCC(=O)NC5=O)C6=O)CC4)cn3)nc2n(C2CCCC2)c1=O (stereo not shown) [Compound 49, 5-((3-(4-(6-((6-acetyl-8-cyclopentyl-5-methyl-7-oxo-7,8-dihydropyrido[2,3-d]pyrimidin-2-yl)amino)pyridin-3-yl)piperazin-1-yl)propyl)amino)-2-(2,6-dioxopiperidin-3-yl) isoindoline-1,3-dione]",dose-dependent inhibition of cell proliferation,dose-dependent CDK4/6 degradation,–
< 50,< 50,> 80,< 50,> 80,"Cc1nc2c(F)cc(-c3nc(Nc4ccc(CN5CCN(CCNc6ccc7c(c6)C(=O)N(C6CCC(=O)NC6=O)C7=O)CC5)cn4)ncc3F)cc2n1C(C)C (stereo not shown) [Compound 90, 2-(2,6-dioxopiperidin-3-yl)-5-((2-(4-((6-((5-fluoro-4-(4-fluoro-1-isopropyl-2-methyl-1H-benzo[d]imidazol-6-yl)pyrimidin-2-yl)amino)pyridin-3-yl)methyl)piperazin-1-yl)ethyl)amino) isoindoline-1,3-dione]",dose-dependent inhibition of cell proliferation,–,inhibiting Mino xenograft tumor growth
< 50,< 50,> 80,< 50,> 80,"Cc1nc2c(F)cc(-c3nc(Nc4ccc(CN5CCN(CC6CN(c7ccc8c(c7)C(=O)N(C7CCC(=O)NC7=O)C8=O)C6)CC5)cn4)ncc3F)cc2n1C(C)C (stereo not shown) [Compound 94, 2-(2,6-dioxopiperidin-3-yl)-5-(3-((4-((6-((5-fluoro-4-(4-fluoro-1-isopropyl-2-methyl-1H-benzo[d]imidazol-6-yl)pyrimidin-2-yl)amino)pyridin-3-yl)methyl)piperazin-1-yl)methyl)azetidin-1-yl)isoindoline-1,3-dione]",dose-dependent inhibition of cell proliferation,–,inhibiting Mino xenograft tumor growth
< 50,< 50,> 80,< 50,> 80,"Cc1nc2c(F)cc(-c3nc(Nc4ccc(CN5CCN(CCCNc6ccc7c(c6)C(=O)N(C6CCC(=O)NC6=O)C7=O)CC5)cn4)ncc3F)cc2n1C(C)C (stereo not shown) [Compound 73, 2-(2,6-dioxopiperidin-3-yl)-5-((3-(4-((6-((5-fluoro-4-(4-fluoro-1-isopropyl-2-methyl-1H-benzo[d]imidazol-6-yl)pyrimidin-2-yl)amino)pyridin-3-yl)methyl)piperazin-1-yl)propyl)amino) isoindoline-1,3-dione]",dose-dependent inhibition of cell proliferation,dose-dependent CDK4/6 degradation,–
< 50,< 50,> 80,< 50,> 80,"Cc1nc2c(F)cc(-c3nc(Nc4ccc(CN5CCN(CC6CN(c7ccc8c(c7)CN(C7CCC(=O)NC7=O)C8=O)C6)CC5)cn4)ncc3F)cc2n1C(C)C (stereo not shown) [Compound 95, 3-(5-(3-((4-((6-((5-fluoro-4-(4-fluoro-1-isopropyl-2-methyl-1H-benzo[d]imidazol-6-yl)pyrimidin-2-yl)amino)pyridin-3-yl)methyl)piperazin-1-yl)methyl)azetidin-1-yl)-1-oxoisoindolin-2-yl)piperidine-2,6-dione]",–,–,–
